Measured values as given in US6921824B1, “Ruthenium dimeric complexes suitable as antimetastatic and antineoplastic agents” (priority 1999, dated 2005).
Marks after values point to notes of the source that are not given here.

Experiments:
MCa mammary carcinoma = test: Post-surgical treatment: inhibition of lung metastases at advanced stage of growth, MCa mammary carcinoma; type: in vivo, CBA mice; settings: for Lung metastases Number % T/C / Lung metastases weight % T/C: Treated/Control; for Lung metastases Number / Lung metastases Weight: evaluated day 28; for Growth of the lung metastases (in words): post-surgical treatment at LD0.05 dosages
Protocol: In vivo testing of the activity of the compounds according to the present invention in mice affected by MCa mammary carcinoma: inhibition activity of lung metastases at an advanced stage of growth.
Five groups of CBA kin female mice weighing 23±3 g were inoculated with […] viable MCa mammary carcinoma cells (as determined by trypan blue exclusion) in 0.05 ml Dulbecco's pH 7.4 buffered calcium- and magnesium-free solution (PBS) by intramuscular injection with a sterile insulin syringe. The tumour cells were derived from donors of the same strain injected with the same tumour cells and with the same procedures 2 weeks before. The suspension of tumour cells was prepared in PBS by mechanical mincing of the tumour mass obtained from donor mice, and further removal of tissue debris and cells was obtained, respectively, by filtration through a double layer of sterile gauze and centrifugation at 250× g for 10 minutes. Kin animals were obtained from a colony from Chester Beatthy from London (UK) and were grown in the University of Trieste animal house accordingly to the procedures accepted for the rearing of kin animals. The MCa mammary carcinoma tumour cell-line was derived from a stock, stored in liquid nitrogen, of tumour cells originally obtained from Rudjer Boskovic Institute of Zagreb (HR).
On day 14 since tumour cells implantation, the primary tumour was surgically removed, after general anesthesia of the animals by intraperitoneal injection of 125 mg/kg of Ketamine.
From day 15 to day 20 after tumour cells implantation, the five mice groups were treated, intraperitoneally with a sterile insulin syringe, respectively with: • Group 1 Control (7 animals): 10 ml/kg of body weight/day of sterile and pyrogen-free physiological solution; • Group 2 (7 animals): 28 mg/kg of body weight/day of the compound as prepared in Example 4 in sterile and pyrogen-free physiological solution; • Group 3 (7 animals): 28 mg/kg of body weight/day of the compound as prepared in Example 7 in sterile and pyrogen-free physiological solution; • Group 4 (7 animals): 51 mg/kg of body weight/day of the compound as prepared in Example 8 in sterile and pyrogen-free physiological solution; • Group 5 (7 animals): 52 mg/kg of body weight/day of the compound as prepared in Example 10 in sterile and pyrogen-free physiological solution.
The dosages corresponding to the LD0.05, calculated separately in animals of the same strain and gender and having the same body weight, was administered intraperitoneally for 6 consecutive days, according to the method of Lichtfield and Wilcoxon, and with an observation time of 10 days since last dose.
On day 28 since tumour cells implantation, the mice were sacrificed by cervical dislocation for the evaluation of lung metastases. The lungs were abducted from the animals immediately after sacrifice, divided in single lobes that were soon examined with a low-magnification microscope equipped with a graduated ocular-grid for the measurement of metastases size, where the orthogonal axes a and b (a≦b) were identified. The metastases were then classified by size and the metastatic tumour weight for each animal was calculated as the sum of each single metastasis weight, each of them considered as a rotation solid developed around the above mentioned axes according to the formula (π/6)·a^2·b. The experimental data obtained were then processed by appropriate statistical tests.
The results are reported in Table 2, where the number and weight of lung metastases obtained in groups of animals treated with the compounds of the present invention with respect to the group of controls treated with sterile and pyrogen-free physiological solution, are shown.

[1] = tested on: murine TS/A adenocarcinoma cells; test: In vitro cytotoxicity, MTT analysis (mitochondrial activity); type: cell-based
Protocol: In vitro cytotoxicity of complexes of the present invention on murine TS/A adenocarcinoma cells.
4×10^3 murine TS/A adenocarcinoma cells resuspended in 200 μl RPMI-1640 medium supplemented with 10% FCS (fetal calf serum), 2 mM glutamine and 50 μg/ml gentamicin sulphate, were seeded in a 96-wells plate. After 24 hours incubation at 37° C., in 5% CO2, the complexes as described in example 4 (A), in example 7 (B), in example 8 (C) and in example 10 (D), each solubilised in RPMI-1640 medium supplemented with 5% FCS, 2 mM glutamine and 50 μg/ml gentamicin sulphate, were added to the cells, each at a final concentration of 10^−4, 10^−5 and 10^−6 M. Cell viability tests were performed after 24, 48 and 72 hours of exposure to the compounds by assessing both the effect on protein synthesis and on mitochondrial activity by means of colorimetric assays, respectively the solphorodamine B test (SRB) and the MTT analysis. Each value (optical density) is the average percentage ±S.E. versus the untreated controls.
Values such as *p<0.05, **p<0.01 indicate average values statistically different from the controls. Analysis of Variance and Dunnet test were used in the comparison analysis.
The results are reported in Table 3, wherein both the effect on protein synthesis (SRB) and the mitochondrial activity (MTT) are reported for each complexes tested at different dosages after different exposure time.

[2] = 28 mg/kg of body weight/day i.p. day 15-20, post-surgical
[3] = 52 mg/kg of body weight/day i.p. day 15-20, post-surgical
[4] = 51 mg/kg of body weight/day i.p. day 15-20, post-surgical

| Molecule | Lung metastases Number % T/C (MCa mammary carcinoma; [2]) [%] | Lung metastases weight % T/C (MCa mammary carcinoma; [2]) [%] | Lung metastases Number (MCa mammary carcinoma; [2]) | Lung metastases Weight (MCa mammary carcinoma; [2]) [mg] | Growth of the lung metastases (in words) (MCa mammary carcinoma) | MTT optical density, average percentage ±S.E. versus untreated controls ([1]; 10^−4 M, exposure time 24 h) | MTT optical density, average percentage ±S.E. versus untreated controls ([1]; 10^−4 M, exposure time 48 h) | MTT optical density, average percentage ±S.E. versus untreated controls ([1]; 10^−4 M, exposure time 72 h) | MTT optical density, average percentage ±S.E. versus untreated controls ([1]; 10^−5 M, exposure time 24 h) [%] | MTT optical density, average percentage ±S.E. versus untreated controls ([1]; 10^−5 M, exposure time 48 h) [%] | MTT optical density, average percentage ±S.E. versus untreated controls ([1]; 10^−5 M, exposure time 72 h) [%] | MTT optical density, average percentage ±S.E. versus untreated controls ([1]; 10^−6 M, exposure time 24 h) [%] | MTT optical density, average percentage ±S.E. versus untreated controls ([1]; 10^−6 M, exposure time 48 h) [%] | MTT optical density, average percentage ±S.E. versus untreated controls ([1]; 10^−6 M, exposure time 72 h) [%] | further results |
| --- | --- | --- | --- | --- | --- | --- | --- | --- | --- | --- | --- | --- | --- | --- | --- |
| C[SH](C)(=O)[Ru-]([Cl])([Cl])([Cl])([Cl])[n+]1cc[n+]([Ru-]([Cl])([Cl])([Cl])([Cl])[SH](C)(C)=O)cc1.[Na+].[Na+] [Example 4, [Na]2[trans-RuCl4(Me2SO)]2(μ-pyz)] | 80 | 39 | 41.4 ± 8.0 | 96 ± 20 | reduce significantly | 34 ± 1** % | 50 ± 7** % | 59 ± 1** % | 100 ± 10 | 108 ± 12 | 93 ± 4 | 105 ± 10 | 101 ± 9 | 89 ± 2 |  |
| C[SH](C)(=O)[Ru-]([Cl])([Cl])([Cl])([Cl])[n+]1ccc[n+]([Ru-]([Cl])([Cl])([Cl])([Cl])[SH](C)(C)=O)c1.[Na+].[Na+] [Example 7, [Na]2[trans-RuCl4(Me2SO)]2(μ-pym)] | 78 | 44 | 40.4 ± 7.4 | 107 ± 31 | reduce significantly | 90 ± 10% | 71 ± 12* % | 60 ± 1** % | 117 ± 1 | 104 ± 9 | 93 ± 9 | 110 ± 2 | 110 ± 13 | 104 ± 8 |  |
| C[SH](C)(=O)[Ru-]([Cl])([Cl])([Cl])([Cl])[n+]1ccc(CCc2cc[n+]([Ru-]([Cl])([Cl])([Cl])([Cl])[SH](C)(C)=O)cc2)cc1.[Na+].[Na+] [Example 10, [Na]2[trans-RuCl4(Me2SO)]2(μ-etbipy)] |  |  |  |  | reduce significantly | 76 ± 9% | 65 ± 4** % | 76 ± 4** % | 97 ± 12 | 93 ± 2 | 84 ± 5 | 114 ± 7 | 109 ± 4 | 88 ± 4 | Lung metastases Number % T/C (MCa mammary carcinoma; [3]): 53%; Lung metastases weight % T/C (MCa mammary carcinoma; [3]): 29%; Lung metastases Number (MCa mammary carcinoma; [3]): 27.8 ± 7.8; Lung metastases Weight (MCa mammary carcinoma; [3]): 71 ± 20 mg |
| [Na]2[trans-RuCl4(Me2SO)]2(μ-bipy) [Example 8] |  |  |  |  | reduce significantly | 33 ± 5** % | 52 ± 9** % | 68 ± 4** % | 129 ± 9 | 91 ± 3 | 90 ± 2 | 91 ± 7 | 103 ± 9 | 93 ± 5 | Lung metastases Number % T/C (MCa mammary carcinoma; [4]): 40%; Lung metastases weight % T/C (MCa mammary carcinoma; [4]): 31%; Lung metastases Number (MCa mammary carcinoma; [4]): 20.6 ± 7.3; Lung metastases Weight (MCa mammary carcinoma; [4]): 76 ± 31 mg |
